Experimental findings from patent publication US5330897A, “Sialic acid binding lectin of protozoan origin” (South Alabama Medical Science Foundation, priority 1992, dated 1994) are described below.

Where only a bound is given, the exact number is not on record here.

In assay [1] the test system is T. mobilensis hemolysis of erythrocytes. The experiment in a line: Whole organism hemolysis assay, inhibition. In kind it is cell-based, Tritrichomonas mobilensis. The text has this:
Tritrichomonas mobilensis, an enteric parasite of squirrel monkeys, adheres readily to isolated monkey intestinal epithelial cells and agglutinates human erythrocytes in vitro. These activities are mediated by a sialic acid binding lectin. Hemagglutination by either parasites or purified lectin is inhibited by N-acetylneuraminic acid and anti-lectin monoclonal antibody (MAB), but not by 2,3-dehydro-2-desoxy-N-acetylneuraminic acid, a neuraminidase inhibitor. T. mobilensis hemolyzes erythrocytes in a modification of a previously published whole organism hemolysis assay. Hemolysis is inhibited by N-acetylneuraminic acid, 2,3-dehydro-2-desoxy-N-acetylneuraminic acid, anti-lectin MAB, T. mobilensis lectin and other sialic acid binding lectins, fetuin, and colominic acid, but not by asialofetuin, or leupeptin. Desialated erythrocytes are neither agglutinated nor hemolyzed.

Another assay concerns T. mobilensis lectin. The experiment in a line: Inhibition of T. mobilensis lectin-mediated hemagglutination. It counts as biochemical, Tritrichomonas mobilensis. The conditions noted are these: for Minimal Inhibitory Conc.: 2 units of hemagglutinin; for Inhibition of HA activity of purified lectin (in words): concentrations up to 100 mM where stated.
Assay [2] deals with live T. mobilensis flagellates. In words: Inhibition of hemagglutination by live T. mobilensis. The conditions noted are these: sugars up to 100 mM; normal erythrocytes, room temperature.
For assay [3], the system named is sialidase from T. mobilensis. The experiment in a line: Inhibition of sialidase activity associated with the affinity column. It counts as biochemical, Tritrichomonas mobilensis. The conditions noted are these: 1 mM inhibitor. Here is the method: Free sialic acid release from bovine submaxillary mucin was used to determine enzymatic activity. Sample to be tested (total volume 50 μl) was mixed with 250 μl of 0.1M acetate, pH 5.0 and 200 μl of 1% mucin in water. After incubation at 37° for 30 minutes, 0.5 ml of 5% phosphotungstic acid in 2.5N HCl was added with vortexing. Assay tubes were centrifuged at 2000×g for 10 minutes, and 250 μl of the supernatant was assayed for sialic acid by the thiobarbituric acid method (Warren, J. Biol. Chem. 234:1971-1975 (1959)). Activity was calculated as μmoles of sialic acid released during a 30 min incubation at 37°. Controls were identical samples precipitated by phosphotungstic acid before the 37° incubation.
The sialidase(s) from T. mobilensis can be separated from HA activity by carefully controlling elution conditions from the affinity column. […] Affinity purified lectin is not inhibited at inhibitor concentrations up to 100 mM, while the sialidase activity associated with the column is inhibited by 50% at 1 mM inhibitor. […] Alternatively, they may simply reflect the affinity of the sialidase for mucin.

Assay [4] has as its system T. mobilensis attachment to CHO cells. In words: Carbohydrate inhibition of T. mobilensis adherence to CHO cells. It counts as cell-based, Tritrichomonas mobilensis. The settings on record: concentration-dependent; other carbohydrates up to 100 mM. Here is the method: The kinetics of T. mobilensis-CHO trypsin-dispersed cell interactions were studied in a cell suspension system. Equal volumes (100 μl) of 10^5 CHO cells and 10^6 (unless otherwise specified) trichomonads resuspended in serum-free M199 were mixed in microfuge tubes and incubated at room temperature (unless otherwise stated) with gentle agitation. Periodically the percentage of CHO cells with adherent flagellates was determined microscopically in wet-mount preparations, 100 CHO cells being examined in each preparation.

The test system of assay [5] is T. mobilensis cell-free lysate hemagglutinin. The experiment in a line: Inhibition of HA activity of T. mobilensis cell-free lysate. In kind it is biochemical, Tritrichomonas mobilensis.
Assay [6] deals with T. foetus cell-free lysate hemagglutinin. In words: Inhibition of HA activity of T. foetus cell-free lysate. It counts as biochemical, Tritrichomonas foetus.
Assay [7] deals with T. augusta cell-free lysate hemagglutinin. In words: Inhibition of HA activity of T. augusta cell-free lysate. In kind it is biochemical, Tritrichomonas augusta.
For a further assay, the system named is live T. mobilensis. In words: Slide agglutination of live T. mobilensis by lectins. In kind it is cell-based, Tritrichomonas mobilensis. The settings on record: carbohydrate 100 mM. Here is the method: Agglutination of live T. mobilensis with lectins with various carbohydrate binding specificities was performed by a slide agglutination assay. Lectin Kit LK-2000 (Vector Laboratories) consisted of the following lectins: concanavalin A (ConA), wheat germ agglutinin (WGA), soybean agglutinin (SBA), gorse seed agglutinin (UEA-1), castor bean agglutinin type 1 (RCA-1), peanut agglutinin (PNA), and horse gram agglutinin (DBA). Limulus polyphemus lectin (LPA) was obtained from Sigma, and Limax flavus (LFA) agglutinin from EY Labs. Lectins and specific carbohydrates were dissolved in buffers recommended by the manufacturers. Twenty five μl of washed T. mobilensis (about 2×10^7 /ml) were placed onto a glass slide. An equal volume of lectin (200 μg/ml) or lectin with specific carbohydrate (final concentration, 100 mM) was added. After mixing for 2 to 3 min, the agglutination was evaluated under a microscope.

Another assay concerns live cells of T. foetus. In words: Inhibition of HA by live cells of T. foetus. In kind it is cell-based, Tritrichomonas foetus.

Regarding colominic acid, the Inhibition of hemolysis entry in [1] is recorded as “inhibited”.

As to `O=C(CO)N[C@H]1[C@H]([C@H](O)[C@H](O)CO)OC(O)(C(=O)O)C[C@@H]1O` (stereo partly shown) [N-glycolylneuraminic acid], in the assay with T. mobilensis lectin (carbohydrates), the “Minimal Inhibitory Conc.” value was determined as 8.3 mM. Also, the “Inhibition of hemagglutination by live T. mobilensis” value (“Inhibition of hemagglutination” for short) in assay [2] is reported as “inhibited”.

As to `CC(=O)N[C@H]1[C@H]([C@H](O)[C@H](O)CO)OC(C(=O)O)=C[C@@H]1O` [2,3-dehydro-2-deoxy-N-acetylneuraminic acid], in the assay on T. mobilensis lectin (carbohydrates), the “Minimal Inhibitory Conc.” value was over 100 mM. Besides, in the assay on T. mobilensis lectin, the “Inhibition of HA activity of purified lectin (in words)” value is listed as “not inhibited”. Further, the “Inhibition of sialidase activity” value in assay [3] amounted to 50%. In addition, in assay [1], the Inhibition of hemolysis entry is on record as “inhibited”.

As to “N-acetylneuraminic acid-lactose [sialyllactose]”, the “Inhibition of attachment of parasites to CHO cells” value in [4] is listed as “inhibited”. For the same molecule, the “Inhibition of hemagglutination” value in assay [2] is listed as “inhibited”.

As for `CC(=O)N[C@H]1[C@H]([C@H](O)[C@H](O)CO)OC(O)(C(=O)O)C[C@@H]1O` (stereo partly shown) [N-acetylneuraminic acid], the “Conc. required to inhibit 2 HA units, T. mobilensis” value in assay [5] (carbohydrates, […]) came to 5 µg/mL. The “Conc. required to inhibit 2 HA units, T. foetus” value in assay [6] (carbohydrates, […]) is over 200 µg/mL. In assay [7] (carbohydrates, […]), the “Conc. required to inhibit 2 HA units, T. augusta” value was found to be 10 µg/mL. Further, the “Minimal Inhibitory Conc.” value in the assay with T. mobilensis lectin (carbohydrates) was 2.0 mM. The “Inhibition of HA activity of purified lectin (in words)” value in the assay on T. mobilensis lectin is reported as “inhibited”. Further, the Inhibition of hemolysis result in assay [1] was “inhibited”. Besides, the “Inhibition of attachment of parasites to CHO cells” value in assay [4] is recorded as “inhibited”. In addition, the “Inhibition of hemagglutination” value in [2] is “inhibited”.

Regarding `CC(=O)N[C@H]1C(O)O[C@H](CO)[C@@H](O)[C@@H]1O` (stereo partly shown) [N-acetylglucosamine], the “Conc. required to inhibit 2 HA units, T. mobilensis” value in [5] (carbohydrates, […]) was over 200 µg/mL. In addition, the “Conc. required to inhibit 2 HA units, T. foetus” value in assay [6] (carbohydrates, […]) is over 200 µg/mL. Further, the “Conc. required to inhibit 2 HA units, T. augusta” value in [7] (carbohydrates, […]) is over 200 µg/mL. The “Minimal Inhibitory Conc.” value in the assay on T. mobilensis lectin (carbohydrates) is over 100 mM. For the same molecule, in the assay with live T. mobilensis, the “Effect of specific carbohydrate on agglutinating activity of the appropriate lectin” value is listed as “abolished agglutinating activity”.

B1: Fetuin: sialoconjugate (sialoglycoprotein) (protein, UniProt P12763 19-359, looked up)
Alpha-2-HS-glycoprotein: IPLDPVAGYKEPACDDPDTEQAALAAVDYINKHLPRGYKHTLNQIDSVKVWPRRPTGEVYDIEIDTLETTCHVLDPTPLANCSVRQQTQHAVEGDCDIHVLKQDGQFSVLFTKCDSSPDSAEDVRKLCPDCPLLAPLNDSRVVHAVEVALATFNAESNGSYLQLVEISRAQFVPLPVSVSVEFAVAATDCIAKEVVDPTKCNLLAEKQYGFCKGSVIQKALGGEDVRVTCTLFQTQPVIPQPQPDGAEAEAPSAVPDAAGPTPSAAGPPVASVVVGPSVVAVPLPLHRAHYDLRHTFSGVASVESSSGEAFHVGKTPIVGQPSIPGGPVRLCPGRIRYFKI
With B1, in assay [5] (sialoglycoproteins), the “Conc. required to inhibit 2 HA units, T. mobilensis” value amounted to 100 µg/mL. In addition, the “Conc. required to inhibit 2 HA units, T. foetus” value in assay [6] (sialoglycoproteins) turned out to be 60 µg/mL. Besides, the “Conc. required to inhibit 2 HA units, T. augusta” value in assay [7] (sialoglycoproteins) worked out at 100 µg/mL. In the assay on live cells of T. foetus, the “Conc. required to Inhibit 2 HA Units” value was determined as 60 µg/mL. For the same molecule, the “Minimal Inhibitory Conc.” value in the assay with T. mobilensis lectin (glycoproteins or proteins) was 8.33 µg/mL. In assay [1], the Inhibition of hemolysis entry was “inhibited”.
